In patent publication US7807711B2, “Medicinal acidic cannabinoids” (priority 2004, dated 2010):
pKd: −log10 of the molar value. Where two headings read alike, the source gives them in different places.

Columns and labels:
recombinant human CB2 = molecular target: T1, recombinant human CB2 (Homo sapiens, UniProt P34972); assay: Competitive receptor binding against tritium labelled CP55,940, CB2
T1 construct: expressed in transfected cells; host or cells: Sf9 cells

recombinant human CB1 = molecular target: T2, recombinant human CB1 (Homo sapiens, UniProt P21554); assay: biochemical; format: binding
T2 construct: expressed in transfected cells; host or cells: Sf9 cells
T2 sequence (P21554 whole entry): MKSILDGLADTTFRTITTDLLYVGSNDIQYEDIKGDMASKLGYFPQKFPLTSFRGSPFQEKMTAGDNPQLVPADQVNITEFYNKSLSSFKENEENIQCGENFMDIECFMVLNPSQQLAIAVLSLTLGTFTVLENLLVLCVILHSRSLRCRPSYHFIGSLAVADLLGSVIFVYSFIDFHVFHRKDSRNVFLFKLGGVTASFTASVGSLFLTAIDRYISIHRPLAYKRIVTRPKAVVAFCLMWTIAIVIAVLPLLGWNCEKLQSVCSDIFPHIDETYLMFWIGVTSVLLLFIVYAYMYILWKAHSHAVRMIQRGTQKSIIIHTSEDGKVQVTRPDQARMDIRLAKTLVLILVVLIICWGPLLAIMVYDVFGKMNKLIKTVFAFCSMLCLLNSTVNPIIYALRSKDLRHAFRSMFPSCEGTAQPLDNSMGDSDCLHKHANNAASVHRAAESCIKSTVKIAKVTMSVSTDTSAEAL

[1] = tested on: mRNA coding for interleukin-10 (IL-10); assay: IL-10 mRNA level (RT-PCR) in PHA-stimulated PBMC; format: cell-based; settings: PBMC stimulated by PHA, incubation 4 days; relative to β-actine
[2] = tested on: mRNA coding for TNF-alpha; assay: TNF-alpha mRNA level (RT-PCR) in PHA-stimulated PBMC; format: cell-based; settings: PBMC stimulated by PHA, incubation 4 days; relative to β-actine
[3] = tested on: Experimental Autoimmune Encephalomyelitis; assay: Mouse model for Experimental Autoimmune Encephalomyelitis; format: in vivo; settings: SJL mice, day 0-20
Procedure: The effect of purified THC-acid and unheated cannabis extracts were tested in vivo in a mouse model for Experimental Autoimmune Encephalomyelitis.
Between day 0 and day 20 after onset of the disease the mice were treated daily with a specified oral dose of THC-acid or unheated extract according to the following scheme:
Group 1: vehicle (0.2 mL olive oil/day);
Group 2: 1 mg purified THC-acid in 0.2 mL olive oil/day;
Group 3: unheated cannabis extract in 0.2 mL olive oil containing 1 mg THC-acid/day.
1: mild perivascular accumulation
2: mild perivascular accumulation, multi-focal
3: perivascular accumulation, multiple cell layers, multi-focal.

T1 sequence (P34972 whole entry): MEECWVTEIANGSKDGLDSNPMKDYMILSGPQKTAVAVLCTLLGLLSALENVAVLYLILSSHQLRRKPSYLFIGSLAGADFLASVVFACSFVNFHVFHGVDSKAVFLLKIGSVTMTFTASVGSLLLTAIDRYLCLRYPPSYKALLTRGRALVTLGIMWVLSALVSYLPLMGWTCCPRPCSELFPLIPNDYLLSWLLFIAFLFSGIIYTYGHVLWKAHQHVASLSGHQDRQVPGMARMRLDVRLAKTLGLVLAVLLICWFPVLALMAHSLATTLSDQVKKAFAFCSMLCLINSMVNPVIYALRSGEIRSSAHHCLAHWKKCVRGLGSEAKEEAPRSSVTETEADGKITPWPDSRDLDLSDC

SMILES: CCCCCc1cc(O)c2c(c1)OC(C)(C)c1ccc(C)cc1-2 [CBN*, cannabinol, reference compound]
- pKd (recombinant human CB2): 7.77
- pKd (recombinant human CB1): 7.44

SMILES: CCCCCc1cc2c(c(O)c1C(=O)O)C1C=C(C)CCC1C(C)(C)O2 (centres unmarked) [THC-A, Δ^9-tetrahydrocannabinolic acid]
- level of the anti-inflammatory cytokine IL-10 (mRNA) [1]: increase
- pKd (recombinant human CB2; purified components, Sf9 cells, read-out: Kd CB2): < 6.00
- level of the pro-inflammatory cytokine TNFα (mRNA) [2]: decrease
- number of inflammatory cells in the brain stem compared to vehicle ([3]; 1 mg THC-acid/day oral in olive oil, sacrificed after 42 days): reduced the number of inflammatory cells in the brain stem significantly
- clinical score ([3]; 1 mg THC-acid/day oral, FIG. 4): improved the clinical score significantly
- pKd (recombinant human CB1; purified components, Sf9 cells, read-out: Kd CB1): < 6.00
